# From ChEMBL document CHEMBL2163249, “Exploration of natural compounds as sources of new bifunctional scaffolds targeting cholinesterases and beta amyloid aggregation: the case of chelerythrine” (Bioorg Med Chem, 2012)
# Counter-ions that a name gives are not always drawn.
# Tests used:
# [1] = molecular target: Acetylcholinesterase (Electrophorus electricus) (UniProt O42275); settings: at 2 mg/mL
# Description: Inhibition of electric eel AChE at 2 mg/ml by Ellman's method
# [2] = molecular target: T1, Acetylcholinesterase (Electrophorus electricus, UniProt O42275); test: Inhibition of electric eel AChE by Ellman's method
# T1 sequence (O42275 whole entry): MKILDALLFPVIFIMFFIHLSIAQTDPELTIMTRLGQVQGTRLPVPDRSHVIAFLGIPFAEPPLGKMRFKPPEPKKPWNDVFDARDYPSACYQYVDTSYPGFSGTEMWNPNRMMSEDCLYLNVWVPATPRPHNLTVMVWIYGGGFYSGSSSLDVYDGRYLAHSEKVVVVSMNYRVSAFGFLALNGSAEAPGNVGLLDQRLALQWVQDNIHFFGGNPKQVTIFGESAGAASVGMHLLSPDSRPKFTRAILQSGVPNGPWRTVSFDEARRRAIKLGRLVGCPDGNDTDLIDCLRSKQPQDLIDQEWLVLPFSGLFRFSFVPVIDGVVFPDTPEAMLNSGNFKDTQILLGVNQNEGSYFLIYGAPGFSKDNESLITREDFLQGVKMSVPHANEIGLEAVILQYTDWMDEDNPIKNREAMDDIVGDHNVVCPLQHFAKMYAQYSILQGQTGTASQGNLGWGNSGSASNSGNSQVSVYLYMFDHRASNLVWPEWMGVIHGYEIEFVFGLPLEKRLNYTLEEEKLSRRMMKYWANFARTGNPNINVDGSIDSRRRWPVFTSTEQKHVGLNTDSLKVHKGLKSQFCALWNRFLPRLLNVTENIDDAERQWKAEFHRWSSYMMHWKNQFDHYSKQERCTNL
# [3] = molecular target: Cholinesterase (Equus caballus) (UniProt P81908); settings: at 2 mg/mL
# Cholinesterase (Equus caballus), sequence (P81908 whole entry): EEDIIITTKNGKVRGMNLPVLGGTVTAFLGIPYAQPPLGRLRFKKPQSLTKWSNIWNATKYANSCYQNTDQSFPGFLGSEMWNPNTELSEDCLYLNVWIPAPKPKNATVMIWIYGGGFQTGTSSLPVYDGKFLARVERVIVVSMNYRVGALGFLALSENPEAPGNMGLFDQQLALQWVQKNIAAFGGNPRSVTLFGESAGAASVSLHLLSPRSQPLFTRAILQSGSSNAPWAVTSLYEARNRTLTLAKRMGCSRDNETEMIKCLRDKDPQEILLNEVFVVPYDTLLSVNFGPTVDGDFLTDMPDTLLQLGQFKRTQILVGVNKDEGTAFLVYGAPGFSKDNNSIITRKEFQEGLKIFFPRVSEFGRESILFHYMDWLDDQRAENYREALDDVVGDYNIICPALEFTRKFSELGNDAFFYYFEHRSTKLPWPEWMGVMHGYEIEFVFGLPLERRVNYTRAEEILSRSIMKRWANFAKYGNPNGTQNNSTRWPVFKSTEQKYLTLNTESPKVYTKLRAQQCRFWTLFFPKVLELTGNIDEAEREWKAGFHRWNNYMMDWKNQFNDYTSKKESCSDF
# Description: Inhibition of horse BChE at 2 mg/ml by Ellman's method
# [4] = molecular target: Cholinesterase (Homo sapiens, UniProt P06276); test: Inhibition of human BChE by Ellman's method
# Cholinesterase (Homo sapiens, UniProt P06276), sequence (P06276 whole entry): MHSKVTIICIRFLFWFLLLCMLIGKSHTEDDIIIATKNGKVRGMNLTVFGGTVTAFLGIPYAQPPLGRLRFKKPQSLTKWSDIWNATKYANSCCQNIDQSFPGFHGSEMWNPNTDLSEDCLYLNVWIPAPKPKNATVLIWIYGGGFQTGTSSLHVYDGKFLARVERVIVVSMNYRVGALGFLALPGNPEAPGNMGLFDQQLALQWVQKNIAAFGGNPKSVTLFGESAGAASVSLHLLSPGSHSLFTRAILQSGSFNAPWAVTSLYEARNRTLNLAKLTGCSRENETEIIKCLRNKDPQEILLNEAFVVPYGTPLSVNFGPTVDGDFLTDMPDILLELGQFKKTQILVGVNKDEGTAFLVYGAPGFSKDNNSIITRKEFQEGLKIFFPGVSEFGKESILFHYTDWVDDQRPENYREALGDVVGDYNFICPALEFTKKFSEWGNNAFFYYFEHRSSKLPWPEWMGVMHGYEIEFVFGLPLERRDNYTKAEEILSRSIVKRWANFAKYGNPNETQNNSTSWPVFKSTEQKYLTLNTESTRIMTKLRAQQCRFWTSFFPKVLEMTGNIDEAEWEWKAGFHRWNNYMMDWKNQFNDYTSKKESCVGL
# [5] = molecular target: Cholinesterase (Equus caballus, UniProt P81908); test: Inhibition of horse BChE by Ellman's method
# Cholinesterase (Equus caballus, UniProt P81908), sequence (P81908 whole entry): as the sequence (P81908 whole entry) above
# [6] = Inhibition of amyloid beta (1 to 42) aggregation
# [7] = Inhibition of amyloid beta (1 to 40) aggregation assessed as induction of disaggregation at 100 uM treated 4 days after formation of aggregates by thioflavin T fluorescence method
# [8] = Inhibition of HFIP-induced amyloid beta (1 to 40) aggregation at 250 uM after 45 mins by thioflavin T fluorescence method
# [9] = Inhibition of amyloid beta (1 to 40) aggregation assessed as induction of disaggregation treated 45 mins after formation of aggregates by thioflavin T fluorescence method
# [10] = Inhibition of amyloid beta (1 to 40) aggregation assessed as induction of disaggregation at 100 uM treated 24 hrs after formation of aggregates by thioflavin T fluorescence method
# [11] = Inhibition of amyloid beta (1 to 40) aggregation assessed as induction of disaggregation at 10 uM treated 24 hrs after formation of aggregates by thioflavin T fluorescence method
# [12] = Inhibition of HFIP-induced amyloid beta (1 to 40) aggregation after 45 mins by thioflavin T fluorescence method
# [13] = molecular target: T2, Acetylcholinesterase (Homo sapiens, UniProt P22303)
# T2 sequence (P22303 whole entry): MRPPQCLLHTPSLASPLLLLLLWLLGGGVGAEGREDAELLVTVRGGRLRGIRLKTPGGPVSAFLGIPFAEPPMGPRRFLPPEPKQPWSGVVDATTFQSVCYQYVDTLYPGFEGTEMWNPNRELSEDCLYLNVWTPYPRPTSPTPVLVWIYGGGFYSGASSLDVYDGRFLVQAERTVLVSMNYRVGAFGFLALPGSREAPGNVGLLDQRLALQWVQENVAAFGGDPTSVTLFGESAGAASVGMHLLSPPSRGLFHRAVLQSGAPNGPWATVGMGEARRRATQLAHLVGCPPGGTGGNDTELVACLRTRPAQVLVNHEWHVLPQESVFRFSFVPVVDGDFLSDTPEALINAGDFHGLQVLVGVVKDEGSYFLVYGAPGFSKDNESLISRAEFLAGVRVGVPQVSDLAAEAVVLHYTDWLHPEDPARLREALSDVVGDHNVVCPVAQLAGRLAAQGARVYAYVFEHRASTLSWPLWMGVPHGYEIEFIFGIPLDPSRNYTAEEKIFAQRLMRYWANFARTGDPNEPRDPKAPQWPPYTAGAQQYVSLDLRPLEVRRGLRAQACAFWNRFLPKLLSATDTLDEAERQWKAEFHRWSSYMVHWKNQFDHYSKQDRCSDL
# Description: Inhibition of human AChE by Ellman's method
# [14] = Inhibition of HFIP-induced amyloid beta (1 to 40) aggregation at 20 uM after 45 mins by thioflavin T fluorescence method
# [15] = molecular target: T2, Acetylcholinesterase; test: Uncompetitive inhibition of human AChE using acetyl thiocholine iodide as substrate by Lineweaver-Burk double-reciprocal analysis
# [16] = molecular target: T1, Acetylcholinesterase; test: Competitive inhibition of electric eel AChE using acetyl thiocholine iodide as substrate by Lineweaver-Burk double-reciprocal analysis
# [17] = Inhibition of HFIP-induced amyloid beta (1 to 40) aggregation at 10 uM after 45 mins by thioflavin T fluorescence method
# [18] = molecular target: T2, Acetylcholinesterase; test: Competitive inhibition of human AChE using acetyl thiocholine iodide as substrate by Lineweaver-Burk double-reciprocal analysis
# [19] = molecular target: T1, Acetylcholinesterase; test: Uncompetitive inhibition of electric eel AChE using acetyl thiocholine iodide as substrate by Lineweaver-Burk double-reciprocal analysis
# Acetylcholinesterase (Electrophorus electricus), sequence (O42275 24-633 limits assumed): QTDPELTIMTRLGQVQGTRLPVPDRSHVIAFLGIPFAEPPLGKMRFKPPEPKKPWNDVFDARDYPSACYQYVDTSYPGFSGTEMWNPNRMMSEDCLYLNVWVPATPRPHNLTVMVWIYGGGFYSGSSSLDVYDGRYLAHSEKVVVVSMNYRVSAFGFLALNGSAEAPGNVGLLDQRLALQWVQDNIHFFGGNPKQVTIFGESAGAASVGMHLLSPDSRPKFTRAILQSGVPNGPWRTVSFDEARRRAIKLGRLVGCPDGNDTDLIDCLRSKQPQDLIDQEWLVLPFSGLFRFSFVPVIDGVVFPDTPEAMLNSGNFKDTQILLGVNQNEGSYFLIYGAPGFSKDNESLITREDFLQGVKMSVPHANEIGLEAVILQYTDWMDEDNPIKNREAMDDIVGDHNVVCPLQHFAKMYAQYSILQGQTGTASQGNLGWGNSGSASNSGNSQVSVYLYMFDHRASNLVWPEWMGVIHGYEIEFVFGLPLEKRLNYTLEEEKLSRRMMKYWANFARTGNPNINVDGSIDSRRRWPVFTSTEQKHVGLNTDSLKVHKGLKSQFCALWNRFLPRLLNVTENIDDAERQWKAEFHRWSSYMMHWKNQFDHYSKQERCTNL
SMILES,inhibition [1] [%],inhibition [3] [%],further results
C=C[C@H]1CN2CC[C@H]1C[C@@H]2[C@@H](O)c1ccnc2ccc(OC)cc12 [QUINIDINE],20.2,66,IC50 [2]: Not Active
C[C@@H]1CC[C@H]2[C@H](C)[C@H]3CC[C@@]4(O)[C@@H]5CC(=O)[C@H]6CC(=O)CC[C@]6(C)[C@H]5C[C@H]4[C@@H]3CN2C1 [SEVEDINDIONE],,17,IC50 ([4]; read-out: IC50): 0.27 µM; IC50 [2]: Not Active; IC50 ([5]; read-out: IC50): 3.68 µM
C=C[C@H]1C[N@@]2CC[C@H]1C[C@@H]2[C@@H](O)c1ccnc2ccc(OC)cc12 [QUINIDINE],,,IC50 ([4]; read-out: IC50): 1.23 µM; IC50 ([5]; read-out: IC50): 7.37 µM
COC(=O)[C@H]1[C@H]2C[C@H]3c4[nH]c5ccccc5c4CCN3C[C@H]2CC[C@@H]1O.Cl [RAUWOLSCINE HYDROCHLORIDE],12.4,59.1,IC50 ([4]; read-out: IC50): 13.7 µM; IC50 [2]: Not Active; IC50 ([5]; read-out: IC50): 8.38 µM
Cc1c([C@H](C)[C@@H]2NC[C@@H](C)C[C@H]2O)ccc2c1C[C@H]1[C@H]2CC=C2C[C@@H](O)CC[C@@]21C [VERATRAMINE],24.5,66.2,IC50 ([4]; read-out: IC50): 19.5 µM; IC50 [2]: Not Active; IC50 ([5]; read-out: IC50): 10.8 µM
COc1cc2c3cc1Oc1c(OC)c(OC)cc4c1[C@@H](Cc1ccc(OC(=O)c5ccc([N+](=O)[O-])cc5)c(c1)Oc1ccc(cc1)C[C@@H]3N(C)CC2)N(C)CC4 [E6 BERBAMINE],,0.47,IC50 ([4]; read-out: IC50): 2.14 µM; IC50 [2]: Not Active; IC50 ([5]; read-out: IC50): 4.2 µM
C[C@@H]1OC(=O)[C@H]2C[C@H]3CCCC[C@@H]3[C@@H](/C=C/[C@H]3CCC[C@H](C)N3C)[C@@H]12 [HIMBACINE],57,,IC50 [4]: Not Active; IC50 ([2]; read-out: IC50): 22.7 µM; IC50 [5]: Not Active
COc1cc2c3cc1Oc1c(OO)c(OC)cc4c1[C@H](Cc1ccc(cc1)Oc1cc(ccc1O)C[C@H]3N(C)CC2)N(C)CC4.O=S(=O)(O)O [OXYACANTHINE SULFATE],0.62,66.3,IC50 ([4]; read-out: IC50): 1.89 µM; IC50 [2]: Not Active; IC50 ([5]; read-out: IC50): 4.1 µM
c1ccc2c(c1)CN1CCCC1=N2 [DESOXYPEGANINE HYDROCHLORIDE HYDRATE],70.6,94.8,IC50 ([2]; read-out: IC50): 11.8 µM; IC50 ([5]; read-out: IC50): 11.9 µM
O[C@H]1CCN2Cc3ccccc3N=C12 [VASICINE],,85.7,IC50 ([4]; read-out: IC50): 3.13 µM; IC50 [2]: Not Active; IC50 ([5]; read-out: IC50): 2.53 µM
Cl.Cl.c1ccc2c3c([nH]c2c1)[C@H]1[C@H]2CC[C@H]([C@@H]4CCCN[C@@H]42)N1CC3,20.5,48.7,IC50 ([4]; read-out: IC50): 9.01 µM; IC50 [2]: Not Active; IC50 ([5]; read-out: IC50): 10.6 µM
CCC1=C[C@@H]2CN3CCc4c([nH]c5ccccc45)[C@@](C(=O)OC)(C2)[C@@H]13 [CATHARANTHINE BASE],5.28,75.2,IC50 ([4]; read-out: IC50): 3.17 µM; IC50 [2]: Not Active; IC50 ([5]; read-out: IC50): 5.17 µM
Oc1cccc2[nH]ccc12,,,IC50 [6]: 85 µM
CC(C)=CCC[C@]1(C)[C@@H](CC=C(C)C)C[C@]2(CC=C(C)C)C(=O)C(CC=C(C)C)=C(O)[C@@]1(C(=O)C(C)C)C2=O,,,inhibition [7]: 20%
Nc1ccc(O)cc1,,,inhibition [8]: 64%
Oc1ccc(/C=C/c2cc(O)cc(O)c2)cc1 [RESVERATROL],15.1,36.8,IC50 [9]: 81.8 µM; inhibition [10]: 32%; inhibition [11]: 71%
COc1cc2c(cc1OC)-c1cc3ccc(OC)c(OC)c3c[n+]1CC2.O.[Cl-] [PALMATINE CHLORIDE HYDRATE],72.6,7.47,IC50 [9]: 174 µM; IC50 [12]: 92.2 µM; IC50 [5]: Not Active; IC50 [13]: 1690 nM
COc1ccc2cc3[n+](cc2c1OC)CCc1cc2c(cc1-3)OCO2 [BERBERINE CHLORIDE],79,,IC50 [9]: 106 µM; inhibition [14]: 36%; IC50 ([2]; read-out: IC50): 2.74 µM; IC50 [12]: 43.8 µM
COc1ccc2c(c[n+](C)c3c4cc5c(cc4ccc23)OCO5)c1OC [CHELERYTHRINE CHLORIDE],75.9,83.5,IC50 [9]: 13 µM; IC50 ([4]; read-out: IC50): 10.3 µM; IC50 ([2]; read-out: IC50): 3.78 µM; IC50 [12]: 4.2 µM; Ki [15]: 1120 nM; IC50 ([5]; read-out: IC50): 6.33 µM; IC50 [13]: 1540 nM; Ki [16]: 480 nM; inhibition [17]: 67%; Ki [18]: 320 nM; Ki [19]: 920 nM
O=C1CCC[C@@H]2[C@H]3CCCN4CCC[C@@H](CN12)[C@@H]34,-1.14,22.4,
C=C[C@]12CN(C)[C@@H]3[C@H]4CO[C@H](C[C@H]41)[C@]1(C(=O)Nc4ccccc41)[C@@H]32,6.89,31.1,
c1ccc2c(c1)[nH]c1cnccc12,-1.66,28.7,
CC(=O)c1c(O)c(C)c(O)c(Cc2c(O)c3c(c(C(=O)/C=C/c4ccccc4)c2O)OC(C)(C)C=C3)c1O,15.8,4.24,
COc1ccc2c(c1OC)C(=O)O[C@H]2[C@@H]1c2cc3c(cc2CCN1C)OCO3,9.75,-1.4,
N[C@H](C(=O)O)[C@@H]1CC(Cl)=NO1,2.09,8.62,

SMILES,inhibition [1] [%],inhibition [3] [%],further results
COc1cc2ccc(=O)oc2cc1O,4.78,0.6,
COc1cc2c(cc1O)C[C@H]1c3c(cc(O)c(OC)c3-2)CCN1C,9.51,1.24,
Cc1nccc2c1[nH]c1cc(O)ccc12,46.1,35.9,
O=c1c(O)c(-c2ccccc2)oc2cc(O)cc(O)c12,6.98,2.59,
OC1c2ccccc2N=C2CCCN21 (stereo unspecified) [PEGANOLE],,65.7,IC50 ([4]; read-out: IC50): > 20 µM; IC50 [2]: Not Active; IC50 ([5]; read-out: IC50): 11.4 µM
O=c1oc2cc(O)ccc2c2oc3cc(O)ccc3c12,3.18,9.06,
CC[C@H]1CN2CCc3c([nH]c4ccccc34)[C@H]2C[C@@H]1/C(=C\OC)C(=O)OC [HIRSUTINE],,87.1,IC50 ([4]; read-out: IC50): 1.97 µM; IC50 [2]: Not Active; IC50 ([5]; read-out: IC50): 4.97 µM
O=c1c(O)c(-c2ccc(O)cc2)oc2cc(O)cc(O)c12,20,5.23,
C[C@@H]1NCCc2cc(O)c(O)cc21,19.3,-1.84,
COC(=O)[C@@H]1[C@H]2C[C@H]3c4[nH]c5ccccc5c4CCN3C[C@@H]2CC[C@@H]1O,16.2,-2.5,
C[C@]12CC[C@H](O)C[C@H]1CC[C@@H]1[C@@H]2CC[C@]2(C)[C@@H](C3=CC(=O)OC3)[C@@H](O)C[C@]12O,-1.84,1.77,
CC(C)[C@@]1(O)[C@@H](OC(=O)c2cc[nH]c2)[C@@]2(O)[C@]3(C)C[C@@]4(O)O[C@@]5([C@H](O)[C@@H](C)CC[C@]35O)[C@@]2(O)[C@@]41C,21.7,-2.13,
CO[C@H]1[C@H](O)[C@H](O[C@H]2CC[C@@]3(C=O)[C@H](CC[C@@H]4[C@@H]3CC[C@]3(C)[C@@H](C5=CC(=O)OC5)CC[C@]43O)C2)O[C@@H](C)[C@@H]1O,4.45,-1.96,
c1ccc2c(Cc3c[nH]c4ccccc34)c[nH]c2c1,4.61,21.7,
COc1cc([C@@H]2c3cc4c(cc3[C@@H](O[C@@H]3O[C@@H]5CO[C@@H](C)O[C@H]5[C@H](O)[C@H]3O)[C@H]3COC(=O)[C@H]23)OCO4)cc(OC)c1O,-9.19,-5.72,
COc1cc2oc(=O)ccc2cc1O,28.1,3.87,
COc1cc(/C=C/C(=O)CC(=O)/C=C/c2ccc(O)c(OC)c2)ccc1O,-2.21,2.41,
CC(=O)OC[C@]12CCC(C)=C[C@H]1O[C@@H]1[C@H](O)[C@@H](OC(C)=O)[C@@]2(C)[C@]12CO2,23.8,12.3,
COc1cc(C(=O)OC2CC3CCC(C2)N3C)ccc1O (stereo unspecified),31.5,6.73,
COC(=O)C[C@](O)(CCC(C)(C)O)C(=O)O[C@@H]1C(OC)=C[C@]23CCCN2CCc2cc4c(cc2[C@H]13)OCO4,-5.71,1.48,
C[C@H]1CCCC(=O)CCC/C=C/c2cc(O)cc(O)c2C(=O)O1,1.81,-1.04,
C=C(C)[C@@H]1CC=C(C(=O)O)CC1,-3.9,3.58,
CC(C)CCNC(=O)[C@H](CC(C)C)NC(=O)[C@H]1O[C@@H]1C(=O)O,-1.94,10.6,
COc1ccc(C(=O)OC2C[C@H]3CC[C@H](C2)N3C)cc1OC (stereo partly specified),49.5,1,
